Target: T1, ABCG2 (Homo sapiens, UniProt Q9UNQ0)
T1 construct: Recombinant ABCG2
T1 sequence (Q9UNQ0 1-655): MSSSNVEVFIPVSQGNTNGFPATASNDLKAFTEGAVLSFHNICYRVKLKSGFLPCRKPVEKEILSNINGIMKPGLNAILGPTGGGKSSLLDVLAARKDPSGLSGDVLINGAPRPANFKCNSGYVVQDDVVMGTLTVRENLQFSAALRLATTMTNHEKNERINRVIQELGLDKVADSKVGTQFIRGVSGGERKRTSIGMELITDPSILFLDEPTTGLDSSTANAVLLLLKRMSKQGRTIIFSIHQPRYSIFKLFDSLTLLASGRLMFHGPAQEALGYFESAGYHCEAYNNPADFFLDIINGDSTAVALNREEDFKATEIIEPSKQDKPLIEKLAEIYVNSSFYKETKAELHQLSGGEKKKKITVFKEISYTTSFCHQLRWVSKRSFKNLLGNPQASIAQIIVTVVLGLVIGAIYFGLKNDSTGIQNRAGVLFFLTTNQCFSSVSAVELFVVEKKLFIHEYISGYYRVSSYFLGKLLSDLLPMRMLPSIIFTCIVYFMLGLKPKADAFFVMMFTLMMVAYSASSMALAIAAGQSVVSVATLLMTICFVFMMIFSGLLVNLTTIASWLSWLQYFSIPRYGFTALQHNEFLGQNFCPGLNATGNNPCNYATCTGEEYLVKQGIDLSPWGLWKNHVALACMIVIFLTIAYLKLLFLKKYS
Assay type: binding

Kd: 141 µM
Compound: COc1cc2ccc(=O)oc2c(O[C@@H]2O[C@H](CO)[C@@H](O)[C@H](O)[C@H]2O)c1O [fraxin]

From paper PMC10708028, “Target Screen of Anti-Hyperuricemia Compounds from Cortex Fraxini In Vivo Based on ABCG2 and Bioaffinity Ultrafiltration Mass Spectrometry” (Molecules, 2023)
